{"source": "patent US20050153899A1", "about": "“Therapeutical conversion” (priority 2003, published 2005)", "key": {"GH or IGF-1 excess": {"system": "GH or IGF-1 excess", "conditions": "primary or secondary therapy; cited from earlier work"}, "patients with acromegaly [1]": {"system": "patients with acromegaly", "assay": "Signs and symptoms of acromegaly, overall health status, ring size", "assay_type": "in vivo, human", "conditions": "after conversion from octreotide LAR", "procedure": "Signs and symptoms of acromegaly and overall health status were assessed by use of questionnaire that patients completed. Disease signs and symptoms were scored using an […] (0=absent to 8=severe, incapacitating); overall health status was scored using a 10-point scale (0=worst possible to 10=best possible). Additionally, change in ring size of the fourth digit of the right hand (fifth digit if the fourth was too large) was measured using a jeweler's ring sizing system (plastic) over the course of the study."}, "patients with acromegaly [2]": {"system": "patients with acromegaly", "assay": "Safety monitoring in conversion study: adverse events, liver function tests, blood pressure, pulse, weight", "assay_type": "in vivo, human", "procedure": "(§1) This open-label study included patients 18 years of age or older with a previously established diagnosis of acromegaly. […] Treatment with a dopamine agonist was discontinued 4 weeks before the baseline visit. Treatment with pegvisomant 10 mg/day subcutaneous was started at week 4 and continued through week 32. […] A more rapid dose escalation was allowed in a few patients based on the effective dose in the previous study. Vital signs and adverse events were monitored at each study visit; clinical and laboratory assessments were conducted at screening and baseline visits and regularly at 4-week intervals during the study. Laboratory assessments included serum IGF-I and GH concentrations, liver chemistry tests (alanine aminotransferase [ALT], aspartate transaminase [AST], bilirubin, and alkaline phosphatase), and routine laboratory tests (hematology, serum chemistry, and urinalysis). For the primary outcome measure, exact binomial 2-sided 95% confidence intervals were constructed. All other analyses were descriptive in nature. For continuous measurements, descriptive summaries and subsequent analyses included the number of patients for which data were available, mean, median, standard deviation, and minimum/maximum values. […] The descriptive summaries for categorical or discrete measurements included the number and percentage of patients in each category. […] Secondary outcomes and safety were reported as descriptive summaries."}, "pituitary tumor": {"system": "pituitary tumor", "design": "species or system human", "conditions": "in vivo", "procedure": "Magnetic resonance imaging of the pituitary was performed at baseline and at the end of the study. Pituitary tumor volumes were calculated from the images by a single evaluator. Ultrasound of the gallbladder was performed at baseline and week 32."}, "patients with acromegaly [3]": {"system": "patients with acromegaly", "assay": "Glucose homeostasis in conversion study: HbA1c, fasting plasma glucose, insulin, OGTT", "assay_type": "in vivo, human", "procedure": "Glycolated hemoglobin (HbA1c), fasting plasma glucose, and insulin concentrations were used to monitor the effects of pegvisomant on glucose homeostasis. […] Patients also underwent oral glucose tolerance testing (OGTT) to determine the glucose area under the concentration-time curve (AUC) at week 4 before initiation of pegvisomant and at week 32. Plasma glucose levels were assessed at −15, 0, 30, 60, 90, 120, 150, and 180 minutes following an oral glucose load.\nFor the primary outcome measure, exact binomial 2-sided 95% confidence intervals were constructed. All other analyses were descriptive in nature. For continuous measurements, descriptive summaries and subsequent analyses included the number of patients for which data were available, mean, median, standard deviation, and minimum/maximum values. […] The descriptive summaries for categorical or discrete measurements included the number and percentage of patients in each category. Statistical significance defined as a P value of <0.05 was determined by: 1) McNemar's Chi-square test for liver function tests and the proportion of patients with IGF-I below upper limit of normal at during the study versus baseline, or 2) the signed rank test for all other comparisons. Secondary outcomes and safety were reported as descriptive summaries."}, "serum IGF-I": {"system": "serum IGF-I", "assay": "Serum IGF-I concentration (RIA) in open-label octreotide LAR to pegvisomant conversion study", "assay_type": "in vivo, human", "procedure": "as §1, with “urinalysis). Assaying of serum IGF-I and GH concentrations was performed by an independent laboratory (Endocrine Sciences, Inc., Calabasas Hills, Calif.). Following separation of serum IGF-I from binding proteins by acid-ethanol extraction, serum IGF-I concentrations were determined using the IGF-I Nichols Kit (Cat. […] Serum GH concentrations were measured using a standard double antibody RIA with 125I-labeled recombinant human GH (hGH) tracer and primary rabbit anti-hGH antisera. Bound radioactive antibody-bound hGH was detected using a gamma counter. Specific radioactive hGH binding for each dilution was determined by subtracting the respective nonspecific binding, and the net radioactive hGH binding was calculated as a percentage of the total radioactive hGH added to each tube. Dilutions having a specific binding >2% were designated positive.” for “urinalysis).”"}, "[4]": {"conditions": "patients with normal IGF-I at baseline (n=13)"}}}
{"compound": "C[C@@H](O)[C@@H]1NC(=O)[C@H](CCCCN)NC(=O)[C@@H](Cc2c[nH]c3ccccc23)NC(=O)[C@H](Cc2ccccc2)NC(=O)[C@@H](NC(=O)[C@H](N)Cc2ccccc2)CSSC[C@@H](C(=O)N[C@H](CO)[C@@H](C)O)NC1=O", "note": "[Octreotide]", "values": [{"measurement": "patients in whom GH or IGF-1 excess is controlled", "setting": "GH or IGF-1 excess", "value": "50-60%"}]}
{"compound": "pegvisomant", "values": [{"measurement": "mean overall signs-and-symptoms scores, overall health status, measures of ring size", "setting": "patients with acromegaly [1]", "value": "improved"}, {"measurement": "clinically relevant changes in serum ALT, ASP or bilirubin in patients with normal liver function at baseline", "setting": "patients with acromegaly [2]; in vivo", "value": "No patient"}, {"measurement": "elevations in blood pressure or pulse", "setting": "patients with acromegaly [2]; in vivo", "value": "No significant or clinically relevant elevations"}, {"measurement": "mean diastolic blood pressure", "setting": "patients with acromegaly [2]; in vivo", "value": 76, "unit": "mm Hg"}, {"measurement": "mean systolic blood pressure", "setting": "patients with acromegaly [2]; in vivo", "value": 126, "unit": "mm Hg"}, {"measurement": "patients reporting at least 1 adverse event", "setting": "patients with acromegaly [2]; in vivo", "value": 26.4, "unit": "%"}, {"measurement": "patients with abnormal liver function tests (≧3 times ULN)", "setting": "patients with acromegaly [2]; in vivo", "value": "No patients had abnormal liver function tests"}, {"measurement": "patients with treatment-related constipation", "setting": "patients with acromegaly [2]; in vivo", "value": 3.8, "unit": "%"}, {"measurement": "patients with treatment-related injection-site reaction", "setting": "patients with acromegaly [2]; in vivo", "value": 3.8, "unit": "%"}, {"measurement": "serious treatment-related adverse events", "setting": "patients with acromegaly [2]; in vivo", "value": "No serious treatment-related adverse events"}, {"measurement": "patients with anomalous spikes in ALT levels", "setting": "patients with acromegaly [2]; week 20 to week 24", "value": 5.7, "unit": "%"}, {"measurement": "pituitary volume, mean change", "setting": "pituitary tumor", "value": 0.06, "unit": "cm3"}, {"measurement": "pituitary volume, median change", "setting": "pituitary tumor", "value": 0, "unit": "cm3"}, {"measurement": "pituitary volume, range of change", "setting": "pituitary tumor", "value": "−0.73 to 1.1", "unit": "cm3"}, {"measurement": "change in median HbA1c", "setting": "patients with acromegaly [3]; all patients, 32-week study", "value": "significant decrease"}, {"measurement": "decrease in fasting plasma glucose", "setting": "patients with acromegaly [3]; [4]", "value": 1.7, "unit": "mmol/L"}, {"measurement": "decrease in median HbA1c", "setting": "patients with acromegaly [3]; [4]", "value": 0.2, "unit": "%"}, {"measurement": "peak insulin concentration", "setting": "patients with acromegaly [3]; week 12", "value": 90, "unit": "pmol/L"}, {"measurement": "glucose AUC during 2-hour OGTT", "setting": "patients with acromegaly [3]; week 32", "value": 1280, "unit": "mmol·min/L"}, {"measurement": "insulin/glucose ratio", "setting": "patients with acromegaly [3]; week 32", "value": 13.6}, {"measurement": "median fasting glucose", "setting": "patients with acromegaly [3]; week 32", "value": 4.7, "unit": "mmol/L"}, {"measurement": "median insulin concentration", "setting": "patients with acromegaly [3]; week 32", "value": 69, "unit": "pmol/L"}, {"measurement": "cumulative percentage of patients achieving at least one IGF-I concentration within normal age-related range", "setting": "serum IGF-I; any time during the study", "value": 85, "unit": "%"}, {"measurement": "change in IGF-I concentrations", "setting": "serum IGF-I; patients with baseline IGF-I above age-adjusted reference range", "value": "significantly reduced"}, {"measurement": "change in IGF-I concentrations", "setting": "serum IGF-I; patients with normal IGF-I levels at baseline", "value": "not significantly changed"}, {"measurement": "serum IGF-I concentration", "setting": "serum IGF-I; week 32, all patients", "value": 292, "unit": "ng/mL"}, {"measurement": "patients with normalized IGF-I concentrations", "setting": "serum IGF-I; week 32, 38 of 49 patients", "value": 77.6, "unit": "%"}]}
